Common to all, as to assay type: in vivo
Assay [1] deals with Mycosphaerella graminicola; Anamorph: Septoria tritici. The assay is described as follows: Leaf Blotch of Wheat fungicidal activity (SEPTTR). The settings on record: Zymoseptoria tritici; for pest or weed control at 100 ppm: rate 100 ppm; for pest or weed control at 121.5 g/ha: rate 121.5 g/H. In outline: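 Acetone solutions diluted with nine volumes of water containing 110 ppm Triton X-100, sprayed to run-off on first-leaf wheat seedlings (Yuma), inoculated with S. tritici before or after treatment. Plants held in dew chambers, then in a 20 °C greenhouse. Disease severity (0–100%) scored when untreated plants fully symptomatic; % control relative to untreated.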

For another assay, the system named is Puccinia triticina. The assay is described as follows: Wheat Brown Rust fungicidal activity (PUCCRT). The settings on record: Puccinia triticina; for pest or weed control at 100 ppm: rate 100 ppm; for pest or weed control at 121.5 g/ha: rate 121.5 g/H. In outline:
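Yuma wheat seedlings at first-leaf stage sprayed to run-off (acetone solution in water with 110 ppm Triton X-100) or track-sprayed as EC with 0.1% Trycol 5941; inoculated with P. triticina spores before or after treatment. Overnight dark dew at 22° C., then greenhouse 24° C.; disease severity 0–100% gives percent control vs untreated.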

The subject of another assay is Phakopsora pachyrhizi. As to the kind of experiment: Asian Soybean Rust fungicidal activity (PHAKPA). The settings on record: 25 ppm. How it is done: Evaluation of Fungicidal Activity: Asian Soybean Rust (Phakopsora pachyrhizi; Bayer Code PHAKPA)
Technical grades of materials were dissolved in acetone, which were then mixed with nine volumes of water containing 0.011% Tween 20. The fungicide solutions were applied onto soybean seedlings using an automated booth sprayer to run-off. All sprayed plants were allowed to air dry prior to further handling.
Soybean plants (variety Williams 82) were grown in soil-less Metro mix, with one plant per pot. Two weeks old seedlings were used for testing. Plants were inoculated either 3 days prior to or 1 day after fungicide treatments. Plants were incubated for 24 h in a dark dew room at 22° C. and 100% RH then transferred to a growth room at 23° C. for disease to develop. Disease severity was assessed on the sprayed leaves.

The mark [2] stands for this setting: 24 h, 1 Day Protectant, read-out: Disease control SEPTTR 1DP.
Where [3] appears, read: 72 h, 3 Day Curative, read-out: Disease control SEPTTR 3DC.
[4] abbreviates: 24 h, 1 Day Protectant, read-out: Disease control PUCCRT 1DP.
Where [5] appears, read: 72 h, 3 Day Curative, read-out: Disease control PUCCRT 3DC.

Like-named read-outs stand apart in the source and are kept apart here.

In the case of `COc1ccnc(C(=O)N[C@H]2COC[C@H](CCC(C)C)[C@@H](OCC(C)C)[C@H](C)OC2=O)c1OCOC(C)=O` [Compound F106], the pest or weed control at 100 ppm (in assay [1] (setting [2]); in assay [1] (setting [3]); in the assay with Puccinia triticina (setting [4]); in the assay on Puccinia triticina (setting [5])) was 80 to 100% throughout. For the same compound, the pest or weed control at 121.5 g/ha (in assay [1] (setting [2]); in assay [1] (setting [3]); with Puccinia triticina (setting [4]); with Puccinia triticina (setting [5])) was 80 to 100% each time. The “Disease Control PHAKPA 1DP” value with Phakopsora pachyrhizi (1 Day Protectant) is given as “A (80-100)”. Moreover, the “Disease Control PHAKPA 3DC” value in the assay on Phakopsora pachyrhizi (3 Day Curative) was “A (80-100)”.

(Values after patent publication US9179674B2, “Macrocyclic picolinamide compounds with fungicidal activity” (DOW AGROSCIENCES LLC, priority 2013, dated 2015).)
